Laboratory results: patent US20140004243A1, “SALTY TASTE ENHANCER” (AJINOMOTO CO., INC., priority 2011, published 2014)

Target: T1, Human ENaC δ, β and γ subunit (Homo sapiens, UniProt P51168+P51170+P51172)
T1 construct: expressed in transfected cells; host or cells: Xenopus laevis (African clawed frog) oocytes injected with cRNA
T1 sequence (P51172 1-802): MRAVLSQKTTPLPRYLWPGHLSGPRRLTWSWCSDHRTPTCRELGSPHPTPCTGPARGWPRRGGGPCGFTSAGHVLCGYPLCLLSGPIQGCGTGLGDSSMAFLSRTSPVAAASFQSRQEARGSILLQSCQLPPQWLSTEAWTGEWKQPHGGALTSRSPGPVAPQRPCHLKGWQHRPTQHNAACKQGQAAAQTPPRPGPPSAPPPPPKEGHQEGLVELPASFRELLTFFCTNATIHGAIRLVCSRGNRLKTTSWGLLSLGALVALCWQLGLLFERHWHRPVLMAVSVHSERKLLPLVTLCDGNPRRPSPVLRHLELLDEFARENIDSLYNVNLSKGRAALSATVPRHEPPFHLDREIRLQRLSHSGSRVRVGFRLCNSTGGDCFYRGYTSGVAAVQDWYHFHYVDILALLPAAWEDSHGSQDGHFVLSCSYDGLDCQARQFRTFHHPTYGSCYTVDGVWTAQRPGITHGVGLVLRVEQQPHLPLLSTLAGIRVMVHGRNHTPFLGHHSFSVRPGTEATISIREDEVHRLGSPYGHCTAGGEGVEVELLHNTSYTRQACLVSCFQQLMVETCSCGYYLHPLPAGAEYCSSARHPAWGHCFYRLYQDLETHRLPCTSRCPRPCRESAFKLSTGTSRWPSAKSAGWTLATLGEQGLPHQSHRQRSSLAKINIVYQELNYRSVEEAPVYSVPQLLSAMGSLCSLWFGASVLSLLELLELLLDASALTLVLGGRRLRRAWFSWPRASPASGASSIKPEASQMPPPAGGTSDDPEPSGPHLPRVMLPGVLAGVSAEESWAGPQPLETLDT
T1 sequence (P51168 1-640): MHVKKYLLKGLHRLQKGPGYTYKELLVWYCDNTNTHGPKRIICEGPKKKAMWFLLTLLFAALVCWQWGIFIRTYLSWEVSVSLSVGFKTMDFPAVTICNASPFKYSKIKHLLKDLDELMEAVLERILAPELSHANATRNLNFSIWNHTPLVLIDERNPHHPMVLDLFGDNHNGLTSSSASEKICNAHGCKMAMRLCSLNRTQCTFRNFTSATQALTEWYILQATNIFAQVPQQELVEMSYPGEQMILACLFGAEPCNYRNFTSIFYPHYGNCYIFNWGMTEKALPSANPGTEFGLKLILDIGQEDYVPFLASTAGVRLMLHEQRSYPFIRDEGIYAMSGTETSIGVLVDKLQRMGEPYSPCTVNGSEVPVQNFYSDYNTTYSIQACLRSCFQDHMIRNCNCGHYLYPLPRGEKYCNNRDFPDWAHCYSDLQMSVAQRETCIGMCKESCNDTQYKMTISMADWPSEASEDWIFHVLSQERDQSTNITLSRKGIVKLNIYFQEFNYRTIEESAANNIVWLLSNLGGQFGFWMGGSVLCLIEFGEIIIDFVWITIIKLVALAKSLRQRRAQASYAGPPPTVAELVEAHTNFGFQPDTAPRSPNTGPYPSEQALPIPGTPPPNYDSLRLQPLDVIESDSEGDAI
T1 sequence (P51170 1-649): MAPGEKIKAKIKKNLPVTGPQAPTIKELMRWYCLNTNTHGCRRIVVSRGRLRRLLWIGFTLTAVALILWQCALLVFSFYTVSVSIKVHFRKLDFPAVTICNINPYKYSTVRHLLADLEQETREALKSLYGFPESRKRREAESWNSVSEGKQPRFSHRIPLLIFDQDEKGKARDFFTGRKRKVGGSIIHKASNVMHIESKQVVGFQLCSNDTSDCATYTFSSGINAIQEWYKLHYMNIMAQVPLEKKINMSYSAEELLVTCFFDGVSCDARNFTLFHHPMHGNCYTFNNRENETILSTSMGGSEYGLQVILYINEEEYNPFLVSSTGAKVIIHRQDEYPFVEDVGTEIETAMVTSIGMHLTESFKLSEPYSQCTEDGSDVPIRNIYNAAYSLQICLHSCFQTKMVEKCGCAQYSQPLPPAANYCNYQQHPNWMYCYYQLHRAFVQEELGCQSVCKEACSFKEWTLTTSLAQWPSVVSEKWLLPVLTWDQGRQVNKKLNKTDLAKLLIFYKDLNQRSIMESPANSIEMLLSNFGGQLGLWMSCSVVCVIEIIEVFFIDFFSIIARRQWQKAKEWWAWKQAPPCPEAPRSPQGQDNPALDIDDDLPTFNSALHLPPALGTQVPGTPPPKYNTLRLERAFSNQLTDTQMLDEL
Assay: Measurement of ENaC activation potency (MED) in ENaC-expressing oocyte, Two Electrode Voltage Clamp
Format: cell-based
Details: minimum effective dose at which current started to increase; ENaC-expressing African clawed frog oocyte; smaller MED = higher ENaC activation potency
How it was run: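 Xenopus oocytes injected with human ENaC δ, β and γ cRNA, cultured 16–72 hr, voltage-clamped 30 mV below resting potential in ND96 (pH 7.6) by two-electrode voltage clamp. Compounds (0.1 nM–300 μM) perfused at rising concentrations every 3 min. MED = lowest dose raising current ≥10%, or raising 5 μM capsazepine-evoked current ≥25%, whichever smaller.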

MED: 1 µM
SMILES: OC[C@@H](Cc1ccccc1)NC(=S)NCc1ccccc1 [Example 52]
